Active and inactive are the calls of the source. The calls are words filed in the database; no cut-off is given here.
Assays:
DCN1-like protein 1 [1] = biological target: T1, DCN1-like protein 1 (Homo sapiens, UniProt Q96GG9); assay: Inhibition of GST-tagged DCN1 (unknown origin) using AcUBE2M1-21 incubated for 30 mins by HTRF assay
Target sequence in this assay (Q96GG9 whole entry): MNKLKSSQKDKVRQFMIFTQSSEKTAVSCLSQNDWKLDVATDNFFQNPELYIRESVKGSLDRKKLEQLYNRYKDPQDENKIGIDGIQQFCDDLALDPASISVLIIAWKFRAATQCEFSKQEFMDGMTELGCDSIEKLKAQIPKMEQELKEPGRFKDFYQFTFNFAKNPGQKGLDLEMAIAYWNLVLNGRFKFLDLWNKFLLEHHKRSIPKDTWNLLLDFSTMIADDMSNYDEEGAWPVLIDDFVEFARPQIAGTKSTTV

[2] = Cytotoxicity against Sprague-Dawley rat cardiac fibroblast by MTT assay; type: toxicity, cell-based, Fibroblast of cardiac tissue; details: cardiac fibroblasts
DCN1-like protein 1 [3] = biological target: T1, DCN1-like protein 1
Target sequence in this assay (Q96GG9 whole entry, looked up): as the sequence (Q96GG9 whole entry) above
Description: Binding affinity to DCN1 (unknown origin) assessed as change in entropy by MM-PBSA method

DCN1-like protein 1 [4] = biological target: T1, DCN1-like protein 1; remark: listed apart in the source
Target sequence in this assay (Q96GG9 whole entry, looked up): as the sequence (Q96GG9 whole entry) above
Description: Binding affinity to DCN1 (unknown origin) assessed as Gibbs free energy change by MM-PBSA method

[5] = test system: Fibroblast of cardiac tissue; assay: Antifibrotic effect in SD rat cardiac fibroblast assessed as reduction in Ang II-induced collagen I upregulation preincubated for 2 hrs followed by Ang II-stimulation and further incubated for 24 hrs by western blot analysis (reference value: 71 %); type: functional; details: time 26.0 hrs
[6] = test system: Fibroblast of cardiac tissue; assay: Antifibrotic effect in SD rat cardiac fibroblast assessed as reduction in Ang II-induced activation of Nrf2 signaling pathway preincubated for 2 hrs followed by Ang II-stimulation and further incubated for 24 hrs by western blot analysis (reference value: 43 %); type: functional; details: time 26.0 hrs
DCN1-like protein 2 = DCN1-like protein 2 (Homo sapiens, UniProt Q6PH85); assay: Binding affinity to DCN2 (unknown origin) assessed as inhibitory constant
Sequence of DCN1-like protein 2 (Q6PH85 whole entry): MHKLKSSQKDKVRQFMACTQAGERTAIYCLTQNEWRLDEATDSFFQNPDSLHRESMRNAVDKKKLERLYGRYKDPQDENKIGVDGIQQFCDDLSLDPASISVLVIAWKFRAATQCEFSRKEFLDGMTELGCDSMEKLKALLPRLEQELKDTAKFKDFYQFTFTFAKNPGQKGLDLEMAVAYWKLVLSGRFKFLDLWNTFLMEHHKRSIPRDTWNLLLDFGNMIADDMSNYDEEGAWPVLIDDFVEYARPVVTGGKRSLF

DCN1-like protein 3 = biological target: T2, DCN1-like protein 3 (Homo sapiens, UniProt Q8IWE4); assay: Binding affinity to DCN3 (unknown origin) assessed as inhibitory constant
T2 sequence (Q8IWE4 whole entry): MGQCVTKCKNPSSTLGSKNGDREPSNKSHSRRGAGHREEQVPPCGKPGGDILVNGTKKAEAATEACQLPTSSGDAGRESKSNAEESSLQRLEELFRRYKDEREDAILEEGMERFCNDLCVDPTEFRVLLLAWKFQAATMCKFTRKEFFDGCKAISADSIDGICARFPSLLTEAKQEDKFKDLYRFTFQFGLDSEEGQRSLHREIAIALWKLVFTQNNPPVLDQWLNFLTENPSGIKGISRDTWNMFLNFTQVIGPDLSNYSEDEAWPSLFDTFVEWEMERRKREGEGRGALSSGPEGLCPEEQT

DCN1-like protein 5 = biological target: T3, DCN1-like protein 5 (Homo sapiens, UniProt Q9BTE7); assay: Binding affinity to DCN5 (unknown origin) assessed as inhibitory constant
T3 sequence (Q9BTE7 whole entry): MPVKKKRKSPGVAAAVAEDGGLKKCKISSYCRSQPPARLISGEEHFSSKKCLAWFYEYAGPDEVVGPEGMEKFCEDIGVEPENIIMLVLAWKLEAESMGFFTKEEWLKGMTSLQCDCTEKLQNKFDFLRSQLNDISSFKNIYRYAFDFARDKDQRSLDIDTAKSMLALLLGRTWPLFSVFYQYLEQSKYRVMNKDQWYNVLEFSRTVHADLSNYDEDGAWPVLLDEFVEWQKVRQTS

Cardiac fibroblast = assay: Inhibition of DCN1 in Sprague-Dawley rat cardiac fibroblast assessed as suppression in DCN1-UBC12 interaction by measuring reduction in UBC12 level at 10 uM incubated for 5 hrs co-incubated with DCN1 antibody by co-immunoprecipitation pull down assay; type: cell-based

| SMILES | IC50 (DCN1-like protein 1 [1]) [nM] | further results |
| --- | --- | --- |
| COc1ccc(-c2nc(SCc3ccc(C)cc3)nc(Sc3nccs3)c2C#N)cc1OC | 17.1 |  |
| Cc1ccc(CSc2nc(Sc3nccs3)c(C#N)c(-c3cccc(C)c3)n2)cc1 | 1690 |  |
| Cc1ccc(CSc2nc(Sc3nccs3)c(C#N)c(-c3ccc(C)cc3)n2)cc1 | 20.9 |  |
| COc1cc(-c2nc(SCc3nc4ccccc4[nH]3)nc(Sc3nccs3)c2C#N)cc(OC)c1OC | 814 |  |
| COc1cc(-c2nc(SCc3ccccc3C)nc(Sc3nccs3)c2C#N)cc(OC)c1OC | 890 |  |
| COc1cc(-c2nc(SCc3cccc(C)c3)nc(Sc3nnnn3C)c2C#N)cc(OC)c1OC | 11.1 |  |
| COc1cc(-c2nc(SCc3cccc(C(F)(F)F)c3)nc(Sc3nccs3)c2C#N)cc(OC)c1OC | 29.3 |  |
| COc1cc(-c2nc(SCc3ccc4ccccc4c3)nc(Sc3nccs3)c2C#N)cc(OC)c1OC | 36.4 | IC50 [2]: 22900 nM |
| COc1cc(-c2nc(SCc3ccc(Cl)cc3)nc(Sc3nnnn3CCN(C)C)c2C#N)cc(OC)c1OC | 25.3 |  |
| COc1cc(-c2nc(SCc3ccccc3)nc(Sc3nnnn3CCN(C)C)c2C#N)cc(OC)c1OC | 28.1 |  |
| COc1ccc(CSc2nc(Sc3nccs3)c(C#N)c(-c3cc(OC)c(OC)c(OC)c3)n2)cc1 | 2570 |  |
| COc1ccc(CNc2nc(Sc3nnnn3C)cc(-c3cc(OC)c(OC)c(OC)c3)n2)cc1 | 4130 |  |
| COc1cc(-c2nc(SCc3ccc(Cl)cc3)nc(Sc3nccs3)c2C#N)cc(OC)c1OC | 24.7 |  |
| Cc1ccc(CSc2nc(Sc3nccs3)c(C#N)c(-c3ccccc3C)n2)cc1 | 463 |  |
| COc1cc(-c2nc(SCc3ccncc3)nc(Sc3nccs3)c2C#N)cc(OC)c1OC | 653 |  |
| Cc1ccc(CSc2nc(Sc3nccs3)c(C#N)c(-c3ccccc3)n2)cc1 | 2790 |  |
| COc1cc(-c2nc(SCc3ccccc3)nc(Sc3nnnn3C)c2C#N)cc(OC)c1OC | 36.4 |  |
| C#CCSc1nc(Sc2nnnn2C)c(C#N)c(-c2cc(OC)c(OC)c(OC)c2)n1 | 0.25 | -TdeltaS (DCN1-like protein 1 [3]): 10.8 kcal/mol; deltaG (DCN1-like protein 1 [4]): -10.3 kcal/mol |
| COc1cc(-c2nc(SCc3cccc(C(F)(F)F)c3)nc(Sc3nnnn3CCN(C)C)c2C#N)cc(OC)c1OC | 12.2 |  |
| COc1cc(-c2nc(SCc3ccc(C)cc3)nc(Sc3nnnn3C)c2C#N)cc(OC)c1OC | 2.86 | IC50 [2]: 9970 nM |

| SMILES | IC50 (DCN1-like protein 1 [1]) [nM] | further results |
| --- | --- | --- |
| COc1cc(-c2nc(SCc3ccc(C(F)(F)F)cc3)nc(Sc3nccs3)c2C#N)cc(OC)c1OC | 100 |  |
| COc1cc(-c2nc(SCc3ccccc3)nc(Nc3cccc(Cl)c3)c2C#N)cc(OC)c1OC | 2390 |  |
| COc1cc(-c2nc(SCc3cccc(C)c3)nc(Sc3nnnn3CCN(C)C)c2C#N)cc(OC)c1OC | 12.4 |  |
| COc1cc(-c2cc(Sc3nnnn3C)nc(SCc3ccc(Cl)cc3)n2)cc(OC)c1OC | 9620 | inhibition [5]: inactive; inhibition [6]: inactive; -TdeltaS (DCN1-like protein 1 [3]): 10.6 kcal/mol; deltaG (DCN1-like protein 1 [4]): -7.12 kcal/mol |
| COc1cc(-c2nc(SCc3ccccc3)nc(Sc3nc(C)c(C)s3)c2C#N)cc(OC)c1OC | > 10000 |  |
| COc1cc(-c2nc(SCc3ccccc3)nc(NCc3nccs3)c2C#N)cc(OC)c1OC | > 10000 |  |
| COc1cc(-c2nc(SCC(=O)Nc3ccccc3)nc(Sc3nccs3)c2C#N)cc(OC)c1OC | 8010 |  |
| COc1cc(-c2nc(SCc3cccc(C(F)(F)F)c3)nc(Sc3nnnn3C)c2C#N)cc(OC)c1OC | 25.8 |  |
| COc1cc(-c2nc(SCc3ccc4ccccc4c3)nc(Sc3nnnn3C)c2C#N)cc(OC)c1OC | 6.15 | IC50 [2]: 18900 nM |
| COc1cc(-c2nc(SCc3ccc(C(C)(C)C)cc3)nc(Sc3nccs3)c2C#N)cc(OC)c1OC | 11.5 |  |
| Cc1ccc(CSc2nc(Sc3nccs3)c(C#N)c(-c3ccc(Br)cc3)n2)cc1 | 27.9 |  |
| COc1cc(-c2nc(SCc3ccccc3)nc(Sc3nccs3)c2C#N)cc(OC)c1OC | 28.2 |  |
| COc1ccc(Nc2nc(SCc3ccccc3)nc(-c3cc(OC)c(OC)c(OC)c3)c2C#N)cc1 | > 10000 |  |
| Cc1ccc(CSc2nc(Sc3nccs3)c(C#N)c(-c3cccs3)n2)cc1 | > 10000 |  |
| COc1cc(-c2nc(SCc3ccc(C(F)(F)F)cc3)nc(Sc3nnnn3C)c2C#N)cc(OC)c1OC | 29.1 |  |
| COc1cc(-c2nc(SCc3ccoc3C(F)(F)F)nc(Sc3nccs3)c2C#N)cc(OC)c1OC | 450 |  |
| Cc1ccc(CSc2nc(Sc3nccs3)c(C#N)c(-c3ccc(Cl)cc3)n2)cc1 | 65.9 |  |
| COc1cc(-c2nc(SCCc3ccccc3)nc(Sc3nccs3)c2C#N)cc(OC)c1OC | 2570 |  |
| COc1cc(-c2nc(SCc3c(C)noc3C)nc(Sc3nccs3)c2C#N)cc(OC)c1OC | 412 |  |
| CCCSc1nc(Sc2nccs2)c(C#N)c(-c2cc(OC)c(OC)c(OC)c2)n1 | 258 |  |

| SMILES | IC50 (DCN1-like protein 1 [1]) [nM] | further results |
| --- | --- | --- |
| COc1cc(-c2nc(SCC(=O)NC(=O)Nc3ccccc3)nc(Sc3nccs3)c2C#N)cc(OC)c1OC | 6180 |  |
| COC(=O)c1ccc(CSc2nc(Sc3nccs3)c(C#N)c(-c3cc(OC)c(OC)c(OC)c3)n2)cc1 | 5.36 |  |
| COc1cc(-c2nc(SCc3ccc(C(F)(F)F)cc3)nc(Sc3nnnn3CCN(C)C)c2C#N)cc(OC)c1OC | 60.5 |  |
| COc1cc(-c2nc(SCc3ccccc3)nc(Sc3nc(C)cs3)c2C#N)cc(OC)c1OC | 41.1 |  |
| COc1ccc(-c2nc(SCc3ccc(C)cc3)nc(Sc3nccs3)c2C#N)cc1 | 21.2 |  |
| Cc1ccc(CSc2nc(Sc3nccs3)c(C#N)c(-c3ccc(Oc4ccccc4)cc3)n2)cc1 | 1020 |  |
| COc1cc(-c2nc(SCC3CCCCC3)nc(Sc3nccs3)c2C#N)cc(OC)c1OC | 611 |  |
| COc1ccc(CSc2nc(Sc3nnnn3C)c(C#N)c(-c3cc(OC)c(OC)c(OC)c3)n2)cc1 | 31.2 |  |
| COc1cc(-c2nc(SCc3ccccc3)nc(Nc3ccc(O)c(Cl)c3)c2C#N)cc(OC)c1OC | > 10000 |  |
| COc1cc(-c2nc(SCc3cccc(C)c3)nc(Sc3nccs3)c2C#N)cc(OC)c1OC | 5.48 | IC50 [2]: 15600 nM |
| COc1cc(-c2nc(SCc3ccc(C(C)(C)C)cc3)nc(Sc3nnnn3C)c2C#N)cc(OC)c1OC | 1220 |  |
| COc1cc(-c2nc(SCc3ccccc3)nc(Nc3ccc(Cl)cc3)c2C#N)cc(OC)c1OC | > 10000 |  |
| COc1ccc(CSc2nc(Sc3nnnn3CCN(C)C)c(C#N)c(-c3cc(OC)c(OC)c(OC)c3)n2)cc1 | 13.4 |  |
| COc1cc(-c2nc(SCc3ccccc3)nc(NC(C)(C)N3CCOCC3)c2C#N)cc(OC)c1OC | > 10000 |  |
| COc1cc(-c2nc(SCc3ccc(C)cc3)nc(Sc3nnnn3CCN(C)C)c2C#N)cc(OC)c1OC | 9.37 | IC50 [2]: 26000 nM |
| C=CCSc1nc(Sc2nccs2)c(C#N)c(-c2cc(OC)c(OC)c(OC)c2)n1 | 36.9 |  |
| C#CCSc1nc(Sc2nccs2)c(C#N)c(-c2ccc(C)cc2)n1 | 18.3 | Ki (DCN1-like protein 2): 66200 nM; Ki (DCN1-like protein 3): 592000 nM; Ki (DCN1-like protein 5): 2140 nM; inhibition (Cardiac fibroblast): Dose-Dependent Effect; IC50 [2]: 12600 nM |
| Cc1ccc(CSc2nc(Sc3nccs3)c(C#N)c(-c3c[nH]c4ccccc34)n2)cc1 | > 10000 |  |
| COc1cc(-c2nc(SCc3ccc(C)cc3)nc(Sc3nccs3)c2C#N)cc(OC)c1OC | 42.2 | IC50 [2]: 6150 nM |
| COc1cc(-c2nc(SCc3ccc4ccccc4c3)nc(Sc3nnnn3CCN(C)C)c2C#N)cc(OC)c1OC | 2.25 | IC50 [2]: 25800 nM |

— ChEMBL document CHEMBL5042502, “Discovery of Potent and Selective 2-(Benzylthio)pyrimidine-based DCN1-UBC12 Inhibitors for Anticardiac Fibrotic Effects” (J Med Chem, 2022)
